Paper PMC7038240 (Antimicrobial Agents and Chemotherapy, 2020)
Read-outs that look alike come from different tables or passages of the source.

What was measured:
Format in all cases: cell-based
E. coli = experiment: microbe, parasite or virus in culture; details: Escherichia coli, read-out: MIC
From the text: (§1) The antibacterial activity of cefepime-taniborbactam was compared to that of ceftazidime-avibactam, ceftolozane-tazobactam, and cefepime-tazobactam against a diverse panel of Enterobacterales and P. aeruginosa clinical isolates with defined β-lactamase subtypes (see Table S1 in the supplemental material). IMP-producing strains were excluded, as none of the BLI-protected cephalosporins inhibited IMP sufficiently to provide a clinically relevant rescue of the partner β-lactam, a characteristic also shared by approved BLI-protected carbapenems (meropenem-vaborbactam and imipenem-relebactam). […] The antibacterial activity of the cephalosporins alone was included to ascertain the level of potentiation by the partnered BLI. BLIs were tested at a fixed concentration of 4 μg/ml in all combinations except cefepime-tazobactam, where tazobactam was fixed at a concentration of 8 μg/ml ([38]). The collection comprised 143 clinical isolates collected from 2005 and 2018.
(§2) The in vitro antibacterial activity of the β-lactams alone or in combination with the BLIs was determined in cation-adjusted Mueller-Hinton broth (CAMHB) microdilution assays according to CLSI recommendations ([51]). […]. The inocula for the broth microdilution assays were prepared by the broth culture method ([51]). […]

K. oxytoca = experiment: microbe, parasite or virus in culture; details: Klebsiella oxytoca, read-out: MIC
From the text: as §1, §2

S. paratyphi = experiment: microbe, parasite or virus in culture; details: Salmonella enterica, strain 527, AmpC/TEM-1
From the text: as §1, §2

C. freundii = experiment: microbe, parasite or virus in culture; details: Citrobacter freundii
From the text: as §1, §2

P. aeruginosa = experiment: microbe, parasite or virus in culture; details: Pseudomonas aeruginosa
From the text: as §1, §2

S. typhi = experiment: microbe, parasite or virus in culture; details: Salmonella enterica, strain 26A, AmpC/TEM-1
From the text: as §1, §2

K. aerogenes = experiment: microbe, parasite or virus in culture; details: Klebsiella aerogenes
From the text: as §1, §2

M. morgannii = experiment: organism not typed; details: strain 769909; OXA-48
From the text: as §1, §2

SMILES: CO/N=C(\C(=O)N[C@@H]1C(=O)N2C(C(=O)[O-])=C(C[N+]3(C)CCCC3)CS[C@H]12)c1csc(N)n1 [FEP]
- MIC (E. coli; strain 875627, CTX-M-27): 8 µg/mL
- MIC (E. coli; strain 878358, TEM-1/CTX-M): ≥ 256 µg/mL
- MIC (E. coli; strain 890500, TEM-1/CTX-M-14): 64 µg/mL
- MIC (E. coli; strain 1275635, VIM-23): 64 µg/mL
- MIC (E. coli; strain 1459453, NDM-7): ≥ 256 µg/mL
- MIC (E. coli; strain CDC-0001, KPC): 128 µg/mL
- MIC (E. coli; strain CDC-0069, NDM): 32 µg/mL
- MIC (E. coli; strain CDC-0149, NDM): ≥ 256 µg/mL
- MIC (E. coli; strain EC1552 2A, AmpC/CMY-2/TEM-1, CTX-M-15): 4 µg/mL
- MIC (E. coli; strain ESBL 5, CTX-M-15/TEM-1): ≥ 256 µg/mL
- MIC (E. coli; strain SI-LP377, CTX-M-2): 64 µg/mL
- MIC (E. coli; strain SI-M004, SHV-2/GES-12): 16 µg/mL
- MIC (E. coli; strain SI-PO26, AmpC/CMY-2/TEM-1): 0.25 µg/mL
- MIC (E. coli; strain SI-V502, TEM-29/CTX-M-15): 8 µg/mL
- MIC (E. coli; strain VER, OXA-48): 0.5 µg/mL
- MIC (K. oxytoca; strain 134943, CMY-2/TEM-1): 4 µg/mL
- MIC (K. oxytoca; strain 847537, KPC): 32 µg/mL
- MIC (S. paratyphi): 64 µg/mL
- MIC (C. freundii; strain 134390, AmpC/TEM-1): 0.5 µg/mL
- MIC (C. freundii; strain 241181, AmpC/TEM-163): 8 µg/mL
- MIC (P. aeruginosa): 16 µg/mL
- MIC (P. aeruginosa; ATCC27853, P. aeruginosa ATCC 27853, PDC-5, read-out: MIC): 1 µg/mL
- MIC (P. aeruginosa; ATCC27853, strain ATCC 27853, W.T., read-out: MIC): 1 µg/mL
- MIC (P. aeruginosa; P. aeruginosa CDC-0457, VIM, read-out: MIC): 16 µg/mL
- MIC (P. aeruginosa; P. aeruginosa PS-12 (ST-235, VIM-2), BLI fixed at 4 μg/ml, read-out: MIC): 32 µg/mL
- MIC (P. aeruginosa; strain 10.257, PDC-50, read-out: MIC): 32 µg/mL
- MIC (P. aeruginosa; strain 11.516, PDC-79, read-out: MIC): 16 µg/mL
- MIC (P. aeruginosa; strain 11.698, PDC-87, read-out: MIC): 128 µg/mL
- MIC (P. aeruginosa; strain 11.813, PDC-91, read-out: MIC): ≥ 256 µg/mL
- MIC (P. aeruginosa; strain 13.1716, PDC-74, read-out: MIC): 128 µg/mL
- MIC (P. aeruginosa; strain 13.1717, PDC-74, read-out: MIC): 64 µg/mL
- MIC (P. aeruginosa; strain 13.1737, PDC-80, read-out: MIC): 16 µg/mL
- MIC (P. aeruginosa; strain 13.1755, PDC-86, read-out: MIC): 16 µg/mL
- MIC (P. aeruginosa; strain 13.1760, PDC-77, read-out: MIC): 16 µg/mL
- MIC (P. aeruginosa; strain 13.1775, PDC-87, read-out: MIC): 64 µg/mL
- MIC (P. aeruginosa; strain 247.3D, VIM-2, read-out: MIC): 32 µg/mL
- MIC (P. aeruginosa; strain 1129, PDC, read-out: MIC): 4 µg/mL
- MIC (P. aeruginosa; strain 3615, PDC/TEM-1, read-out: MIC): 16 µg/mL
- MIC (P. aeruginosa; strain 5671, VIM-1, read-out: MIC): 16 µg/mL
- MIC (P. aeruginosa; strain 8273, PDC/TEM-1, read-out: MIC): 8 µg/mL
- MIC (P. aeruginosa; strain 164951, W.T., read-out: MIC): 1 µg/mL
- MIC (P. aeruginosa; strain 377860, W.T., read-out: MIC): 4 µg/mL
- MIC (P. aeruginosa; strain 384743, PDC/TEM-1, read-out: MIC): 4 µg/mL
- MIC (P. aeruginosa; strain 1013996, KPC-2, read-out: MIC): ≥ 256 µg/mL
- MIC (P. aeruginosa; strain 1071703, GES-6, read-out: MIC): 16 µg/mL
- MIC (P. aeruginosa; strain 1113755, GES-5, read-out: MIC): 32 µg/mL
- MIC (P. aeruginosa; strain 1138223, GES-19, read-out: MIC): ≥ 256 µg/mL
- MIC (P. aeruginosa; strain 1138337, GES-19, read-out: MIC): ≥ 256 µg/mL
- MIC (P. aeruginosa; strain 1258509, GES-6, read-out: MIC): 32 µg/mL
- MIC (P. aeruginosa; strain 1275655, GES-20, read-out: MIC): ≥ 256 µg/mL
- MIC (P. aeruginosa; strain 1300089, GES-19, read-out: MIC): ≥ 256 µg/mL
- MIC (P. aeruginosa; strain 1313666, KPC-2, read-out: MIC): ≥ 256 µg/mL
- MIC (P. aeruginosa; strain CDC-0090, KPC, read-out: MIC): 128 µg/mL
- MIC (P. aeruginosa; strain PA2, W.T., read-out: MIC): 8 µg/mL
- MIC (P. aeruginosa; strain PAA1-9G1, GES-5, read-out: MIC): ≥ 256 µg/mL
- MIC (P. aeruginosa; strain PAA1-9G2, GES-5, read-out: MIC): ≥ 256 µg/mL
- MIC (P. aeruginosa; strain PS-12, VIM-2, read-out: MIC): 32 µg/mL
- MIC (P. aeruginosa; strain PS-32, VIM-2, read-out: MIC): 8 µg/mL
- MIC (P. aeruginosa; strain Paeβ-04, 100-fold ↑ PDC-2/30% OprD/5.6x ↑ABM, read-out: MIC): 16 µg/mL
- MIC (P. aeruginosa; strain Paeβ-10, 67-fold ↑ PDC-2/0.1% OprD/5.7x↑ABM, read-out: MIC): 16 µg/mL
- MIC (P. aeruginosa; strain Paeβ-15, 310-fold ↑ PDC-2/10% OprD/4.4x↑XYM, read-out: MIC): 128 µg/mL
- MIC (P. aeruginosa; strain Paeβ-18, 600-fold ↑ PDC-3/<0.01% OprD/3.9x and 5.6x ↑ABM and XYM, read-out: MIC): 64 µg/mL
- MIC (P. aeruginosa; strain Paeβ-21, 200-fold ↑ PDC-4/10% OprD/13.5x ↑XYM, read-out: MIC): 16 µg/mL
- MIC (P. aeruginosa; strain Ps296, VIM-2, read-out: MIC): 4 µg/mL
- MIC (S. typhi): 4 µg/mL
- MIC (K. aerogenes; strain 73546, AmpC): 0.5 µg/mL
- MIC (K. aerogenes; strain 110099, AmpC/SHV-12): 4 µg/mL
- MIC (K. aerogenes; strain 111707, AmpC/TEM-1): 4 µg/mL
- MIC (M. morgannii): 0.06 µg/mL
